Data published in ChEMBL document CHEMBL1201862, “PubChem BioAssay data set” (2004).
The source made the active and inactive calls.

What was measured:
[1] = target: Eukaryotic translation initiation factor 4E (Mus musculus, UniProt P63073); test: eIF4E–eIF4G protein interaction inhibitors, dose response, biochemical, TR-FRET (AID 855); type: functional;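 note: potency for disrupting eIF4E binding to eIF4GI seen as loss of FRET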
[2] = target: DNA dC->dU-editing enzyme APOBEC-3G (Homo sapiens, UniProt Q9HC16); type: functional;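 note: Dose-response counterscreen measuring inhibition of APOBEC3G DNA deaminase activity, run while confirming APOBEC3A inhibitors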
Sequence of DNA dC->dU-editing enzyme APOBEC-3G (Q9HC16 whole entry): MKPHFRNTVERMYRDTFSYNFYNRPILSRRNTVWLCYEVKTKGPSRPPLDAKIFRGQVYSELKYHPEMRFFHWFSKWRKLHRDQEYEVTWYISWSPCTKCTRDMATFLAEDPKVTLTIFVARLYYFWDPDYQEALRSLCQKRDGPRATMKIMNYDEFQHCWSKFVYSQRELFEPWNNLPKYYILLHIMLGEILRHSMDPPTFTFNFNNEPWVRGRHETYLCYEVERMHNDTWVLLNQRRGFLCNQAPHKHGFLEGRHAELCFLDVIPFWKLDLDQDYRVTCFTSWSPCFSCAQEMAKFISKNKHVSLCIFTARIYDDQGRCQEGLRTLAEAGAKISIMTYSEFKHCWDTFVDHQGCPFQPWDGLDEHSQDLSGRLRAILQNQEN

[3] = target: DNA dC->dU-editing enzyme APOBEC-3A (Homo sapiens, UniProt P31941); test: Dose Response confirmation of small molecule APOBEC3A DNA Deaminase Inhibitors via a fluorescence-based single-stranded DNA deaminase assay. [Related pubchem assays (depositor defined):AID493011, AID493024]; type: functional
Sequence of DNA dC->dU-editing enzyme APOBEC-3A (P31941 whole entry): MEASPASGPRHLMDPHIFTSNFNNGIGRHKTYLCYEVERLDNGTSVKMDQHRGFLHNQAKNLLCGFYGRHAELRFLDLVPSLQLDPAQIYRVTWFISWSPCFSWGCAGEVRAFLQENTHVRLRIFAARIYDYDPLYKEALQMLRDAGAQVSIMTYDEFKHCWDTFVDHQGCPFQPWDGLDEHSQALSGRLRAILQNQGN

Keap1/Nrf2 = Keap1/Nrf2 (Homo sapiens, UniProt Q14145); test: Keap1-Nrf2 protein-protein interaction inhibitors, dose response, biochemical, fluorescence polarization, cherry-picked samples (AID 588683)
Sequence of Keap1/Nrf2 (Q16236 whole entry, the tested form may be a part): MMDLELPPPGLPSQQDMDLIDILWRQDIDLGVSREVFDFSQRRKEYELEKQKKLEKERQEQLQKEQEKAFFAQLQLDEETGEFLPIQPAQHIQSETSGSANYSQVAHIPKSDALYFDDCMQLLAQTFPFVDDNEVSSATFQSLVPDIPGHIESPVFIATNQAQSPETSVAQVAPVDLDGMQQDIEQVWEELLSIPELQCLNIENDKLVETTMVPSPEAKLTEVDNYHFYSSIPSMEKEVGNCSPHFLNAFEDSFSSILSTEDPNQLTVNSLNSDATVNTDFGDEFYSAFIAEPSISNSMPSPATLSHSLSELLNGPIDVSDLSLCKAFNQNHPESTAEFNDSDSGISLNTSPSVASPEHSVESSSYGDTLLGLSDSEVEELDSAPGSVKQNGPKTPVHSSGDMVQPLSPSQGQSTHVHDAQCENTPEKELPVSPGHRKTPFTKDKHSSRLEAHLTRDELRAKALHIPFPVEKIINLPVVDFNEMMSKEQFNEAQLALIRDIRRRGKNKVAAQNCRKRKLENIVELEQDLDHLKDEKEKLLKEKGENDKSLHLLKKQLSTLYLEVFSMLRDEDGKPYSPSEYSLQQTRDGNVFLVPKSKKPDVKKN
Sequence of Keap1/Nrf2 (Q14145 whole entry, the tested form may be a part): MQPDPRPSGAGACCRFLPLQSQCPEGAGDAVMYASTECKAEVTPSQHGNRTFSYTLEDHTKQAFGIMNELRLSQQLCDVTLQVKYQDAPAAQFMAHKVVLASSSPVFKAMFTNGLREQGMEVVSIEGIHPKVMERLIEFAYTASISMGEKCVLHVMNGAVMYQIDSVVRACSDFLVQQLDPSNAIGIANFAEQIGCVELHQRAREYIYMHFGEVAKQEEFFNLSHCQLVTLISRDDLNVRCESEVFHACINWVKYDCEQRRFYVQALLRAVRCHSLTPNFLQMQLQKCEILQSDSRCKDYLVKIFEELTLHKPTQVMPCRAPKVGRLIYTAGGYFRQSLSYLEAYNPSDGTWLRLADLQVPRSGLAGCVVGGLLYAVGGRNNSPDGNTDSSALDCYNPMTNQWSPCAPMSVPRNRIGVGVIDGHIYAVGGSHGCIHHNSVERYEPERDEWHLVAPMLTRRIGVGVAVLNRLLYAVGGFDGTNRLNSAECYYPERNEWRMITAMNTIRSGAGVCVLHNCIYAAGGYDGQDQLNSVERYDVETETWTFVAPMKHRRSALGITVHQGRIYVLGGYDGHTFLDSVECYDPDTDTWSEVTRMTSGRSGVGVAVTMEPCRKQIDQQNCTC

[4] = target: T1, RNA-binding protein pos-1 (Caenorhabditis elegans, UniProt G5EF15); test: inhibitors of POS-1/mex-3 RNA binding, dose response, biochemical, fluorescence polarization (AID 1964);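 note: purified POS-1 fused to maltose binding protein made in E. coli; potency of compounds blocking POS-1 binding to fluorescent RNA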
T1 sequence (G5EF15 whole entry): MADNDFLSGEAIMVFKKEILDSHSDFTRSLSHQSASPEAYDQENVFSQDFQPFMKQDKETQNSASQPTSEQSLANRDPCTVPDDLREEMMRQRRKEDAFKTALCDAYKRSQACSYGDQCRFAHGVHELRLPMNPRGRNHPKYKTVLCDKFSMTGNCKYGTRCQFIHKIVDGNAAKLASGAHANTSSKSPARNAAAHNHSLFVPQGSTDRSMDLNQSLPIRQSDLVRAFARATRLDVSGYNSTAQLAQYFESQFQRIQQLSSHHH

[5] = target: T2, Zinc finger protein mex-5 (Caenorhabditis elegans, UniProt Q9XUB2); test: MEX-5/TCR-2 RNA interaction inhibitors, dose response, biochemical, C. elegans, fluorescence polarization (AID 1960)
T2 sequence (Q9XUB2 whole entry): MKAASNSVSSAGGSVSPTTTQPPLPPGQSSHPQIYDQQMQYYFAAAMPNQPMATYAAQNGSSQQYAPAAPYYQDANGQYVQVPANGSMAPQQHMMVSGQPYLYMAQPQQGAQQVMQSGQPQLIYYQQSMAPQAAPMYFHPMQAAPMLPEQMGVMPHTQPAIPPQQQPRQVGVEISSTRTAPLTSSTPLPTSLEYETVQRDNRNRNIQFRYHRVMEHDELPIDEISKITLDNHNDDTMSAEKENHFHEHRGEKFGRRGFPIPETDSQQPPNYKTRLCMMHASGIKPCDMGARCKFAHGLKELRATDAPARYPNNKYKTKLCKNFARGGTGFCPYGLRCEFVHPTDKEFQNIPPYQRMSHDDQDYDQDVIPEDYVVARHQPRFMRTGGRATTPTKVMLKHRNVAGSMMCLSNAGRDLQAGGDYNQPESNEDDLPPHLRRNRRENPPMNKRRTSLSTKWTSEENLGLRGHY

Hexokinase HKDC1 = target: T3, Hexokinase HKDC1 (Homo sapiens, UniProt Q2TB90); test: HKDC1 hexokinase inhibitors, dose response, biochemical, W721R variant (AID 504729); type: functional
T3 sequence (Q2TB90 whole entry): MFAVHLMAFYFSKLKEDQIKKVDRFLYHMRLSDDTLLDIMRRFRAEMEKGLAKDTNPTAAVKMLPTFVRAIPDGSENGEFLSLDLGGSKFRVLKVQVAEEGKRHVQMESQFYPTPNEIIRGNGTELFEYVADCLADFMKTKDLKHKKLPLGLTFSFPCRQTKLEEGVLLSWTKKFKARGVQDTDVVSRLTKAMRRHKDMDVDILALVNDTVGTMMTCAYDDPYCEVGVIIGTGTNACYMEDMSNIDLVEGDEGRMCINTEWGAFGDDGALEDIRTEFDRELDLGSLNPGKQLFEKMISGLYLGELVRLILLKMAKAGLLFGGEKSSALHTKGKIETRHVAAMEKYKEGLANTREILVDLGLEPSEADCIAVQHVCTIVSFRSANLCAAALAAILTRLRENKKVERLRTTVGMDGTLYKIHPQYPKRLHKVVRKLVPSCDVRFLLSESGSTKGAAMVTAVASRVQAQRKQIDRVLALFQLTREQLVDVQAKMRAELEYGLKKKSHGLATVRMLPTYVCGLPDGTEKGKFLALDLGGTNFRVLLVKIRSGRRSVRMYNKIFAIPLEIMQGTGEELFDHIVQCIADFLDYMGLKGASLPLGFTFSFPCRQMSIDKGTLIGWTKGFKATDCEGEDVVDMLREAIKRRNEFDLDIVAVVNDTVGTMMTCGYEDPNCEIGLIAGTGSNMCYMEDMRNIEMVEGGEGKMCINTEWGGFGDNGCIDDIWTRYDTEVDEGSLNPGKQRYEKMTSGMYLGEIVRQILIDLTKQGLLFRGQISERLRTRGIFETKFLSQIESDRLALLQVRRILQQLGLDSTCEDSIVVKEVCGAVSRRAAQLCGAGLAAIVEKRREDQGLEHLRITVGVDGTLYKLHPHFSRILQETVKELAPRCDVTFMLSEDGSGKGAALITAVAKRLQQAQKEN

[6] = target: T4, Replicative DNA helicase DnaB (Mycobacterium tuberculosis, UniProt P9WMR3); test: DnaB intein splicing inhibitors, dose response, biochemical, cell-free fluorescence (AID 449749); type: functional
T4 sequence (P9WMR3 whole entry): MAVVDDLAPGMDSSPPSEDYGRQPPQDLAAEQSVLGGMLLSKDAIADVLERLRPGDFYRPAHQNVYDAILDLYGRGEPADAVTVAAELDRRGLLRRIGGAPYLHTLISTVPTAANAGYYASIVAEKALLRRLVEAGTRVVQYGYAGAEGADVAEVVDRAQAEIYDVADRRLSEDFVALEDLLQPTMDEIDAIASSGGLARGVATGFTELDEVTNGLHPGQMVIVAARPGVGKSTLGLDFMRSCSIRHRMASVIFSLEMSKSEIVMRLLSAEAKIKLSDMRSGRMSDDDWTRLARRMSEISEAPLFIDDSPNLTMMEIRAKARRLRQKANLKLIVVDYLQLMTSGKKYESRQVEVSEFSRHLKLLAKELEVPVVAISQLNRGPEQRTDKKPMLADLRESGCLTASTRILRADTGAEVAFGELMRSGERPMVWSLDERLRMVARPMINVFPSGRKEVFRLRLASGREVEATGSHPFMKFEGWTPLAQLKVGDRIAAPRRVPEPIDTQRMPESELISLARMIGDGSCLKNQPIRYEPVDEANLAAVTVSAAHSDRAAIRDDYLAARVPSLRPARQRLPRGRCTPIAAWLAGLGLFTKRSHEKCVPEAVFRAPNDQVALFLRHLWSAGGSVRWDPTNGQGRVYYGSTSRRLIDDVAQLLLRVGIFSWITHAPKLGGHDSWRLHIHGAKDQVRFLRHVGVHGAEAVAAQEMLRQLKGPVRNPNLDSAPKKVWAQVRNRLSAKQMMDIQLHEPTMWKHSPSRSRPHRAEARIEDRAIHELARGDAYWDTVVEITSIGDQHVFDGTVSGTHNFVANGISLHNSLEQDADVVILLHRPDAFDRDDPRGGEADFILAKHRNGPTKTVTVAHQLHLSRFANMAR

Protein RecA = target: T5, Protein RecA (Mycobacterium tuberculosis, UniProt P9WHJ3); test: Fluorescence Cell-Free Homogeneous Dose Retest to Identify Inhibitors of RecA-Intein Splicing Activity. [Related pubchem assays (depositor defined):AID2097, AID2223, AID489010, AID492950]; type: functional
T5 sequence (P9WHJ3 whole entry): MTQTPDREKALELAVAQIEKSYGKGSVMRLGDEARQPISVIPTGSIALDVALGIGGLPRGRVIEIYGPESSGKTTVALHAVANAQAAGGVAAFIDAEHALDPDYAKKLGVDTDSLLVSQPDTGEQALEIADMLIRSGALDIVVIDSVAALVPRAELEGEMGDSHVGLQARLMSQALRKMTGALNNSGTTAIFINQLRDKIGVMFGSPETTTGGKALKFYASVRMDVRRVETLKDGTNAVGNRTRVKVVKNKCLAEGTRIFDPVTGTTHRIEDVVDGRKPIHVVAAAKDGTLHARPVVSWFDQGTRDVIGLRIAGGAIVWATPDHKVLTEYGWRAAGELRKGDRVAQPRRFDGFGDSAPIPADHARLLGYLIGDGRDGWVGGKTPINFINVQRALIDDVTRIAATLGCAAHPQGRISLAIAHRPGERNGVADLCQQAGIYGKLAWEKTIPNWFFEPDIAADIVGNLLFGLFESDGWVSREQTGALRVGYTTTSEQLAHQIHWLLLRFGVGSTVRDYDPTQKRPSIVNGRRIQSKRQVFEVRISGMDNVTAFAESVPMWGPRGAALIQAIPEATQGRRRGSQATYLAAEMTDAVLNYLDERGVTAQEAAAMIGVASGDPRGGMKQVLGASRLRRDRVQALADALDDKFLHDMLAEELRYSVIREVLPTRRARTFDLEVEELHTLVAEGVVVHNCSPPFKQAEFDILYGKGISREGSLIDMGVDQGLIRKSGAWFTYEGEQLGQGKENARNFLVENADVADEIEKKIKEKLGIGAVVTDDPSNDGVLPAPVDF

HEK293 = test: cells; conditions: Homo sapiens;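 note: cells exposed to compound for 14 hours overnight before viability readout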
Tumor necrosis factor = Tumor necrosis factor (Homo sapiens, UniProt P01375); test: TNFa-triggered NF-kB activation inhibitors, SAR follow-up, cell-based, revised (AID 2337); type: functional
Sequence of Tumor necrosis factor (P01375 whole entry): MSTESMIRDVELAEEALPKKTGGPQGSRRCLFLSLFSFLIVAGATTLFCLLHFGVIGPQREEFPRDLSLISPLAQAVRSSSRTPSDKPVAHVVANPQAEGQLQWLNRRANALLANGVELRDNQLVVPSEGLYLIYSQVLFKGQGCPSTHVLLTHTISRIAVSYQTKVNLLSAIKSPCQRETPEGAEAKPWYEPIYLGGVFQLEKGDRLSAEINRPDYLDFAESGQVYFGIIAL

Sequence of Eukaryotic translation initiation factor 4E (P63073 whole entry): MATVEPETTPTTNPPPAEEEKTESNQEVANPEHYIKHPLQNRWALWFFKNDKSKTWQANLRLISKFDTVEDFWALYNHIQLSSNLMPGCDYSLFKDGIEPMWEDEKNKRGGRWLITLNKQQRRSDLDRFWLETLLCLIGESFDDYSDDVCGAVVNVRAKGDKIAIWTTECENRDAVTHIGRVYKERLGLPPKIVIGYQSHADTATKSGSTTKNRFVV

With c1csc(-c2nn3c(Cn4cnc5ccccc54)nnc3s2)c1 the IC50 (cells) was < 0.1 µM (active) and the IC50 [1] was > 64 µM (inactive).
In the case of O=C(Nc1ccccc1F)c1ccc(CSc2ncccn2)cc1, the IC50 [2] is reported as 9.71 µM (active) and the IC50 [3] is reported as 4.88 µM (active).
In the case of N#C/C(=C\c1c[nH]c2ccccc12)C(=O)NCC1CCCO1 (stereo not given), the IC50 [2] is reported as 5.05 µM (active) and the IC50 [3] is reported as 5.69 µM (active).
In the case of CCOC(=O)C1CCN(C(=O)Cc2cccc3ccccc23)CC1, the IC50 [2] is reported as 5.83 µM (active) and the IC50 [3] is reported as 5.89 µM (active).
For COc1ccc2nc3ccccc3nc2c1NC(=O)c1ccccc1Cl, the AC50 (Keap1/Nrf2) was 29.2 µM (active), the EC50 [4] was > 300 µM (not active) and the EC50 [5] was > 300 µM (not active).
For CCOc1ccc(N(CC(=O)Nc2ccccc2)S(C)(=O)=O)cc1, the IC50 [2] was 4.76 µM (active) and the IC50 [3] was 3.89 µM (active).
In the case of C[n+]1cc(-c2ccccc2)n2c1CCCCC2, the IC50 [2] is reported as 2.3 µM (active) and the IC50 [3] is reported as 1.66 µM (active).
In the case of CC(C)(C)c1c(Cl)c(O)c(-c2ccccc2)c(=O)n1-c1ccccc1, the IC50 (Hexokinase HKDC1) is reported as 8.83 µM (active), the AC50 [6] is reported as 20.1 µM (active) and the IC50 [1] is reported as 14.1 µM (active). For the same compound, the EC50 (Protein RecA) was 27.2 µM (active).
For CSc1ccc(NC(=O)c2ccc(CN3CCCCC3)cc2)cc1, the IC50 (HEK293) was > 20 µM (inactive) and the IC50 (Tumor necrosis factor) was 19.6 µM (active).
In the case of COc1ccc(Br)cc1CNCC1CCCO1 (stereo not given), the AC50 (Keap1/Nrf2) is reported as > 52 µM (inactive).
With CC1=C[C@@H]2c3cccc4[nH]cc(c34)C[C@H]2N(C)C1 [AGROCLAVINE] the AC50 (Keap1/Nrf2) was 38.4 µM (active), the EC50 [4] was 11.2 µM (active) and the EC50 [5] was 8.67 µM (inconclusive).
